Tests used:
5-HT2A [1] = target: T1, 5-HT2A (Homo sapiens, UniProt P28223); experiment: radioligand displacement, membranes; assay type: binding
T1 construct: gene HTR2A; human recombinant receptor; crude membrane fractions of transfected HEK293 or CHO cells
Source text: radioligand displacement, membranes on 5-HT2A

5-HT2C [2] = target: T2, 5-HT2C (Homo sapiens, UniProt P28335); experiment: radioligand displacement, membranes; assay type: binding
T2 construct: gene HTR2C; human recombinant receptor; crude membrane fractions of transfected cells (CHO-K1; HEK293 or CHO)
T2 sequence (P28335 33-458): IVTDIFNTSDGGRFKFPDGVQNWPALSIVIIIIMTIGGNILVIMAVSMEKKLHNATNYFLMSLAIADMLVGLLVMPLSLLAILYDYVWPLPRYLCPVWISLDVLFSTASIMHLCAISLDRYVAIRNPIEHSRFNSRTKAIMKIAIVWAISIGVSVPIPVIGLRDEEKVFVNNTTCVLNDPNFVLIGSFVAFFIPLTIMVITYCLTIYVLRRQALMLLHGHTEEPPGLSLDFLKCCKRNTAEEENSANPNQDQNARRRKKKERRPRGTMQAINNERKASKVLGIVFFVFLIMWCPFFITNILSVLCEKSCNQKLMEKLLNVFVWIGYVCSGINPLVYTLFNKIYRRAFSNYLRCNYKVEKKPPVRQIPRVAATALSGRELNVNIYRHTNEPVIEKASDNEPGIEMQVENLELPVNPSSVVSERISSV
Source text: radioligand displacement, membranes on 5-HT2C

5-HT2A [3] = target: T1, 5-HT2A; experiment: biochemical; parameters: species or system HEK293 or CHO; competitive radioligand binding on crude membranes, filtration and scintillation counting
Procedure: Eleven dilutions (5 × assay concentration) of the test and reference compounds (Table S1) were prepared in standard binding buffer (50 mM tris(hydroxymethyl)-aminomethane-HCl (Tris-HCl), 10 mM MgCl2, 1 mM ethylenediaminetetraacetate (EDTA), pH 7.4) by serial dilution: 0.05 nM, 0.5 nM, 1.5 nM, 5 nM, 15 nM, 50 nM, 150 nM, 500 nM, 1.5 μM, 5 μM, and 50 μM. The radioligand (Table S3) was diluted to five times the assay concentration in standard binding buffer. Aliquots ([…]) of the radioligand were dispensed into the wells of a 96-well plate containing […] of standard binding buffer. Triplicate aliquots ([…]) of the test and reference compound dilutions were then added. Finally, crude membrane fractions ([…]) of cells (HEK293 or CHO) expressing human recombinant receptors were dispensed into each well. A total of […] of the reaction mixtures was incubated at room temperature and shielded from light for 1.5 h, and was then harvested by rapid filtration onto Whatman GF/B glass fiber filters presoaked with 0.3% polyethyleneimine, by using a 96-well Brandel harvester (Gaithersburg, MD, USA). Four rapid washes were performed with chilled standard binding buffer (500 mL) to decrease nonspecific binding. Filters were placed in 6 mL scintillation tubes and allowed to dry overnight. The next day, 4-mL of EcoScint scintillation cocktail (National Diagnostics) was added to each tube. The tubes were capped, labeled, and counted by liquid scintillation counting. The filter mats were dried, and the scintillant was melted onto the filters, then the radioactivity retained on the filters was counted in a Microbeta scintillation counter. The IC50 values were obtained by using the Prism 4.0 program (GraphPad Software, La Jolla, CA, USA) and were converted into Ki values. Each compound was tested at least in triplicate. With each enantiomer (R)- or (S)-5d and 5e in hand, the optically active pyrimidine derivatives 4d–4e were synthesized following the same reaction sequences (Scheme 3). Finally, compounds 4d and 4e were assessed for their binding affinity to 5-HT2 receptor subtypes by radioligand binding assays. […] A further evaluation of these compounds for other 5-HT receptor subtypes was also performed and is provided in the supplementary data (Table S2). […] Considering the potencies and selectivities of 4, we can conclude that (R,R)-4e would be a viable candidate for a selective 5-HT2C modulator.

5-HT2C [4] = target: T2, 5-HT2C; experiment: [3H]mesulergine displacement, membranes; assay type: binding; conditions: pH […] MgCl2, room temperature; reference compound, may stem from the authors' earlier study (ref […])
Source text: [3H]mesulergine displacement, membranes on 5-HT2C

T1 sequence (P28223 whole entry): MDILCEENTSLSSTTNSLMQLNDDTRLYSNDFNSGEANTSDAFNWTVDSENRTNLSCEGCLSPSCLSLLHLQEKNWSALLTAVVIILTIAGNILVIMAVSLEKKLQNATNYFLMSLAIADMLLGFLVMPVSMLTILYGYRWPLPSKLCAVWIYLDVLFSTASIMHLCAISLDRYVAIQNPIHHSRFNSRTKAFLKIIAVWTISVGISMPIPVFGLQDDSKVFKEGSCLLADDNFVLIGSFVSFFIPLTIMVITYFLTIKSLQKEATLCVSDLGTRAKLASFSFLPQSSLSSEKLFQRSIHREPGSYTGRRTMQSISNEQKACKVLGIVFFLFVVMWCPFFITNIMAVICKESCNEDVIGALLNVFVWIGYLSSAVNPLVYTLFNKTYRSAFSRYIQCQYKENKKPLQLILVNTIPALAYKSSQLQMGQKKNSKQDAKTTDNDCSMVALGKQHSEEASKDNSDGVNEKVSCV

Row | SMILES | Ki (5-HT2A [1]) | Ki (5-HT2C [2]) | inhibition at 10 µM (5-HT2A [3]) | 5-HT2A / %Binding (5-HT2A [1]; pH 7.4, 10 mM MgCl2, room temperature, single concentration, 10 μM) | Ki (5-HT2C [4])
1 | C[C@@H]1CNCCN1c1ncc(F)c(O[C@H](C)c2cccc(F)c2)n1 [(R,R)-4d, 5-Fluoro-4-((R)-1-(3-fluorophenyl)ethoxy)-2-((R)-2-methylpiperazin-1-yl)pyrimidine] | 0.222 µM | 0.0012 µM | 93.3% | – | –
2 | C[C@@H]1CNCCN1c1ncc(F)c(O[C@H](C)c2ccc(F)cc2)n1 [(R,R)-4e, 5-Fluoro-4-((R)-1-(4-fluorophenyl)ethoxy)-2-((R)-2-methylpiperazin-1-yl)pyrimidine] | – | 0.004 µM | – | 0.9% | –
3 | C[C@H](Oc1nc(N2CCNC[C@H]2C)ncc1F)c1cccc(F)c1 [(S,R)-4d, 5-Fluoro-4-((S)-1-(3-fluorophenyl)ethoxy)-2-((R)-2-methylpiperazin-1-yl)pyrimidine] | 0.475 µM | 0.014 µM | 82.4% | – | –
4 | C[C@H](Oc1nc(N2CCNC[C@H]2C)ncc1F)c1ccc(F)cc1 [(S,R)-4e, 5-Fluoro-4-((S)-1-(4-fluorophenyl)ethoxy)-2-((R)-2-methylpiperazin-1-yl)pyrimidine] | 1.02 µM | 0.023 µM | 64.8% | – | –
5 | C[C@H](Cc1cccc(F)c1)Oc1nc(N2CCNC[C@H]2C)ncc1F [compound 3, pyrimidine analogue 3] | 0.128 µM | – | 95.6% | – | 0.0007 µM
